Read-outs that look alike come from different tables or passages of the source.
What was measured:
[1] = test system: MCF-7/ADR (adriamycin-resistant); assay: In vitro sensitivity, sulforhodamine B cytotoxicity assay, MCF-7/ADR (Table 2); assay type: cell-based, human; settings: 72-hour incubation; averaged from two separate experiments
A549 human NSCLC = assay: i.p. A549 tumor, i.p. treatment, survival; settings: for % ILS / LTS/n / MST Days + SEM / Median survival time: treatment days 1, 3, 5, 7 and 9 i.p.
Protocol: Note that long-term survivors (mice that survived through day 300 after cell inoculation) were not included in mean, median, or % ILS calculations.
SCID mice (6/group) were injected with 5×10^6 A549 human NSCLC cells i.p. (day 0).

[2] = test system: A-549 human lung carcinoma; assay: In vitro sensitivity, sulforhodamine B cytotoxicity assay, A-549 (Table 2); assay type: cell-based; settings: 72-hour incubation; averaged from two separate experiments
Protocol: Briefly, 96-well microtiter plates were inoculated (100 μL/well) with 5×10^3 (A549) or 7.5×10^3 (OVCAR-3) cells/well, in RPMI-1640 supplemented with 10% FBS (growth media). The plates were incubated for 24 hr at 37° C., 100% humidity and 5% CO2. At 24 hours, growth media (100 μL) was added to designated “time zero” plates. Similarly, serial dilutions of drug or vehicle (in media) were added (100 μL aliquots) to the test and vehicle control wells at twice the predetermined highest concentration. […] Cells (including time zero plates) were then fixed with 50 μL of 50% trichloroacetic acid (TCA) (w:v) for adherent cells or 80% TCA for suspended cells, and plates refrigerated at 4° C. for 1 hr. […] The plates were then air-dried for 24 hr.

[3] = test system: HT-29 human colon carcinoma cells; assay: In vitro sensitivity, sulforhodamine B cytotoxicity assay, HT-29 (Table 2); assay type: cell-based; settings: 72-hour incubation; averaged from two separate experiments
[4] = test system: OVCAR-3 human ovarian cancer; assay: i.p. OVCAR-3 tumor, i.p. treatment, survival; settings: for % ILS / LTS/n (mice that survived to 300 days) / MST Days ± SEM (n) / Median survival time: treated days 20, 22, 24, 26 and 28 i.p.; for MST Days ± SEM (n) / Median survival time: long-term survivors not included
Protocol: C.B-17 SCID female mice were injected i.p. with 5×10^6 OVCAR-3 human ovarian cancer cells (day 0). […] Note that long-term survivors (mice that survived through day 300 after cell inoculation) were not included in mean, median, or % ILS calculations.

[5] = Protocol: The 20 mg/mL formulation was further diluted to 6 mg/mL in 5% dextrose. […] At 0h, 24h, 1, 2, 3, 4, and 5 weeks samples were chromatographically analyzed by diluting the drugs to 1 mg/mL with 5% dextrose and then mixing 1:1 with acetonitrile. The chromatographic system consisted of a Shimadzu LC100 system with a UV detector. The column used was an Inertsil-ODS2, 150 ×4.6 mm (5 micron particle size) from Keystone Scientific (Bellefonte, Pa.). 20 μL of each sample was injected and read at 227 nm at ambient temperature. […] The constant flow rate was 1 mL/min.
[6] = test system: MCF-7 human breast carcinoma; assay: In vitro sensitivity, sulforhodamine B cytotoxicity assay, MCF-7 (Table 2); assay type: cell-based; settings: 72-hour incubation; averaged from two separate experiments
OVCAR-3 cancer cells = settings: read-out: GI50 ± S.D. OVCAR-3; 72 hr, SRB assay
Protocol: Briefly, 96-well microtiter plates were inoculated (100 μL/well) with 5×10^3 (A549) or 7.5×10^3 (OVCAR-3) cells/well, in RPMI-1640 supplemented with 10% FBS (growth media). The plates were incubated for 24 hr at 37° C., 100% humidity and 5% CO2. At 24 hours, growth media (100 μL) was added to designated “time zero” plates. Similarly, serial dilutions of drug or vehicle (in media) were added (100 μL aliquots) to the test and vehicle control wells at twice the predetermined highest concentration. There were triplicate wells on each plate and duplicate plates (total 6 wells) for each drug concentration. The test plates were incubated as above for 72 hr. Cells (including time zero plates) were then fixed with 50 μL of 50% trichloroacetic acid (TCA) (w:v) for adherent cells or 80% TCA for suspended cells, and plates refrigerated at 4° C. for 1 hr. […] The bound stain was solubilized with 100 μL of 10 mM Tris buffer and the optical density was read spectrophotometrically at 490 nm (Microplate Reader Model 3550-UV, Bio-Rad, Hercules, Calif.). Percent growth was calculated as follows: (T-T0) / (C-T0)×100; where (T)=mean optical density of treated wells at a given drug concentration, (T0)=mean optical density of time zero wells, and (C)=mean optical density of control wells.

[7] = test system: OVCAR-3 human ovarian cancer; assay: i.p. OVCAR-3 tumor, i.v. treatment, survival (FIG. 6); assay type: in vivo, mice
Protocol: Mice were observed daily for mortality and % ILS was calculated as described above.

CDF1 female mice = assay: Acute toxicity of liposomal paclitaxel or paclitaxel derivative given intraperitoneally; settings: i.p.; for number of mice that died within the first 14 days post-injection/total: liposomes
Protocol: Moreover, liposomes containing either paclitaxel or a 2′-(2-bromo) hydrophobic paclitaxel derivative (containing either a six-carbon (C-6), C-8, C-12, C-14 or C-16 acyl chain at the 2′ position) were administered, intraperitoneally in 5 doses, to SCID (severe combined inimunodeficiency) mice bearing a human ovarian cancer (OvCar 3), at a dose of 12.5 mg paclitaxel per kg or a dose of 50 mg paclitaxel derivative per kg.
CDF1 female mice, 5 or 10 mice per group, were intraperitoneally administered either paclitaxel-, 2′-C6-paclitaxel derivative-, or 2′-C16-paclitaxel derivative-containing liposomes, in a single dose, or 5 doses, of either 12.5, 25, 50, 100, 200, 300. 400 or 500 mg of paclitaxel or paclitaxel derivative per kg of mouse body weight.

CDF1 mice [8] = assay: In vivo toxicity, i.p. x 5, non-tumor bearing mice; settings: 30 days observation
Protocol: (§1) A separate group (n=5) was injected with concentrations of Cremophor® EL and ethanol (in PBS) equivalent to the highest concentration of the test treatment. Mortality was recorded daily and body weights taken at least twice weekly for an observation period of 30 days.

CDF1 mice [9] = assay: In vivo toxicity, i.v. x 5, non-tumor bearing mice; settings: 30 days observation
Protocol: as §1

Protocol for A549 cancer cells: Briefly, 96-well microtiter plates were inoculated (100 μL/well) with 5×10^3 (A549) or 7.5×10^3 (OVCAR-3) cells/well, in RPMI-1640 supplemented with 10% FBS (growth media). The plates were incubated for 24 hr at 37° C., 100% humidity and 5% CO2. At 24 hours, growth media (100 μL) was added to designated “time zero” plates. Similarly, serial dilutions of drug or vehicle (in media) were added (100 μL aliquots) to the test and vehicle control wells at twice the predetermined highest concentration. There were triplicate wells on each plate and duplicate plates (total 6 wells) for each drug concentration. The test plates were incubated as above for 72 hr. Cells (including time zero plates) were then fixed with 50 μL of 50% trichloroacetic acid (TCA) (w:v) for adherent cells or 80% TCA for suspended cells, and plates refrigerated at 4° C. for 1 hr. The supernatant was discarded (suspended cell plates were first centrifuged) and the wells rinsed six times with tap water and air-dried. One hundred microliters of 0.4% SRB in 1% acetic acid were added to each well and the plates were incubated under ambient (RT) conditions for 10 min. Unbound stain was removed by rinsing the wells three times with 1% acetic acid. The plates were then air-dried for 24 hr. The bound stain was solubilized with 100 μL of 10 mM Tris buffer and the optical density was read spectrophotometrically at 490 nm (Microplate Reader Model 3550-UV, Bio-Rad, Hercules, Calif.). Percent growth was calculated as follows: (T-T0) / (C-T0)×100; where (T)=mean optical density of treated wells at a given drug concentration, (T0)=mean optical density of time zero wells, and (C)=mean optical density of control wells.

CCCCCCCCCCCCCC[C@@H](Br)C(=O)O[C@@H](C(=O)O[C@H]1C[C@@]2(O)[C@@H](OC(=O)c3ccccc3)[C@@H]3[C@]4(OC(C)=O)CO[C@@H]4C[C@H](O)[C@@]3(C)C(=O)[C@H](OC(C)=O)C(=C1C)C2(C)C)[C@@H](NC(=O)c1ccccc1)c1ccccc1 [BrC16HT, 2′-(R)-[2-bromohexadecanoyl] paclitaxel]
GI50 [1]: > 10000 nM
survival time of tumor-bearing mice vs. control (A549 human NSCLC; i.p. on days 1, 3, 5, 7 & 9): significantly (p<0.05 vs. control) increased the survival time
% ILS (A549 human NSCLC; 25 mg/kg): 247%
LTS/n (A549 human NSCLC; 25 mg/kg): 0/6
MST Days + SEM (A549 human NSCLC; 25 mg/kg): 117 + 8 Days
Median survival time (A549 human NSCLC; 25 mg/kg): 112 days
% ILS (A549 human NSCLC; 50 mg/kg): 450%
LTS/n (A549 human NSCLC; 50 mg/kg): 0/6
MST Days + SEM (A549 human NSCLC; 50 mg/kg): 186 + 30 Days
Median survival time (A549 human NSCLC; 50 mg/kg): 171 days
GI50 [2]: 127 nM
GI50 [3]: 59.5 nM
survival compared to Taxol® 25 mg/kg ([4]; BrC16HT at both 25 and 50 mg/kg, delayed i.p. schedule): significantly increased survival
long-term survivors (LTS), in words ([4]; delayed i.p. schedule (Table 9b)): clear dose-response effect with regard to LTS
survival of tumor-bearing mice vs. control ([4]; early (days 1, 3, 5, 7 & 9) and delayed (days 20, 22, 24, 26 & 28) i.p. treatment schedules): significantly prolonged (p<0.05 vs. control) the survival
survival time compared with Taxol® at equivalent doses ([4]; early and delayed i.p. schedules): more effective than Taxol® in extending survival time
% ILS ([4]; 25 mg/kg): 115%
LTS/n (mice that survived to 300 days) ([4]; 25 mg/kg): 4/10
MST Days ± SEM (n) ([4]; 25 mg/kg): 220 ± 13 (6) Days
Median survival time ([4]; 25 mg/kg): 221 days
% ILS ([4]; 50 mg/kg): 80%
LTS/n (mice that survived to 300 days) ([4]; 50 mg/kg): 7/10
MST Days ± SEM (n) ([4]; 50 mg/kg): 183 ± 67 (3) Days
Median survival time ([4]; 50 mg/kg): 245 days
GI50 relative to Taxol® (A549 cancer cells; in both cell lines (A549, OVCAR-3)): approximately ten times higher than Taxol®
GI50 (A549 cancer cells; read-out: GI50 ± S.D. A549, 72 hr, SRB assay): 29 ± 5.9 nM
Percentage of BrC16HT in Sample ([5]; 6 mg/mL in Crem/EtOH (50:50), undiluted, storage 4° C., 0 h): 93%
Percentage of BrC16HT in Sample ([5]; 6 mg/mL in Crem/EtOH (50:50), undiluted, storage 4° C., 1 Week): 83%
Percentage of BrC16HT in Sample ([5]; 6 mg/mL in Crem/EtOH (50:50), undiluted, storage 4° C., 2 Week): 93%
Percentage of BrC16HT in Sample ([5]; 6 mg/mL in Crem/EtOH (50:50), undiluted, storage 4° C., 3 Week): 61%
Percentage of BrC16HT in Sample ([5]; 6 mg/mL in Crem/EtOH (50:50), undiluted, storage 4° C., 4 Week): 58%
Percentage of BrC16HT in Sample ([5]; 6 mg/mL in Crem/EtOH (50:50), undiluted, storage 4° C., 5 Week): 53%
Percentage of BrC16HT in Sample ([5]; 6 mg/mL in Crem/EtOH (50:50), undiluted, storage 4° C., 24 h): 89%
Percentage of BrC16HT in Sample ([5]; 6 mg/mL in Crem/EtOH (50:50), undiluted, storage 26° C., 0 h): 95%
Percentage of BrC16HT in Sample ([5]; 6 mg/mL in Crem/EtOH (50:50), undiluted, storage 26° C., 1 Week): 42%
Percentage of BrC16HT in Sample ([5]; 6 mg/mL in Crem/EtOH (50:50), undiluted, storage 26° C., 2 Week): 22%
Percentage of BrC16HT in Sample ([5]; 6 mg/mL in Crem/EtOH (50:50), undiluted, storage 26° C., 3 Week): 14%
Percentage of BrC16HT in Sample ([5]; 6 mg/mL in Crem/EtOH (50:50), undiluted, storage 26° C., 4 Week): 8%
Percentage of BrC16HT in Sample ([5]; 6 mg/mL in Crem/EtOH (50:50), undiluted, storage 26° C., 5 Week): 5%
Percentage of BrC16HT in Sample ([5]; 6 mg/mL in Crem/EtOH (50:50), undiluted, storage 26° C., 24 h): 84%
Percentage of BrC16HT in Sample ([5]; 20 mg/mL in Crem/EtOH (50:50) diluted with 5% dextrose to 6 mg/mL, storage 4° C., 0 h): 92%
Percentage of BrC16HT in Sample ([5]; 20 mg/mL in Crem/EtOH (50:50) diluted with 5% dextrose to 6 mg/mL, storage 4° C., 1 Week): 90%
Percentage of BrC16HT in Sample ([5]; 20 mg/mL in Crem/EtOH (50:50) diluted with 5% dextrose to 6 mg/mL, storage 4° C., 2 Week): 88%
Percentage of BrC16HT in Sample ([5]; 20 mg/mL in Crem/EtOH (50:50) diluted with 5% dextrose to 6 mg/mL, storage 4° C., 3 Week): 83%
Percentage of BrC16HT in Sample ([5]; 20 mg/mL in Crem/EtOH (50:50) diluted with 5% dextrose to 6 mg/mL, storage 4° C., 4 Week): 85%
Percentage of BrC16HT in Sample ([5]; 20 mg/mL in Crem/EtOH (50:50) diluted with 5% dextrose to 6 mg/mL, storage 4° C., 5 Week): 82%
Percentage of BrC16HT in Sample ([5]; 20 mg/mL in Crem/EtOH (50:50) diluted with 5% dextrose to 6 mg/mL, storage 4° C., 24 h): 91%
Percentage of BrC16HT in Sample ([5]; 20 mg/mL in Crem/EtOH (50:50) diluted with 5% dextrose to 6 mg/mL, storage 26° C., 0 h): 97%
Percentage of BrC16HT in Sample ([5]; 20 mg/mL in Crem/EtOH (50:50) diluted with 5% dextrose to 6 mg/mL, storage 26° C., 1 Week): 93%
Percentage of BrC16HT in Sample ([5]; 20 mg/mL in Crem/EtOH (50:50) diluted with 5% dextrose to 6 mg/mL, storage 26° C., 2 Week): 90%
Percentage of BrC16HT in Sample ([5]; 20 mg/mL in Crem/EtOH (50:50) diluted with 5% dextrose to 6 mg/mL, storage 26° C., 3 Week): 81%
Percentage of BrC16HT in Sample ([5]; 20 mg/mL in Crem/EtOH (50:50) diluted with 5% dextrose to 6 mg/mL, storage 26° C., 4 Week): 88%
Percentage of BrC16HT in Sample ([5]; 20 mg/mL in Crem/EtOH (50:50) diluted with 5% dextrose to 6 mg/mL, storage 26° C., 5 Week): 87%
Percentage of BrC16HT in Sample ([5]; 20 mg/mL in Crem/EtOH (50:50) diluted with 5% dextrose to 6 mg/mL, storage 26° C., 24 h): 99%
GI50 [6]: 71 nM
GI50 (OVCAR-3 cancer cells): 20 ± 3.3 nM
medium survival times ([7]; 12.5 mg/kg i.v. on days 20, 22, 24, 26 & 28): 182 days
survival time compared to controls ([7]; 25 mg/kg i.v. on days 20, 22, 24, 26 & 28): significantly prolonged compared to controls (p<0.0001)
survival time vs. control ([7]; 12.5 or 25 mg/kg i.v. on days 1, 3, 5, 7, 9, 42, 44, 46, 48 & 50 (FIG. 6a)): significantly (p<0.05 vs. control) increased the survival time
efficacy compared with Taxol® ([7]; 12.5 or 25 mg/kg i.v., FIG. 6a schedule): more effective than Taxol®
survival time vs. control ([7]; i.v. on days 20, 22, 24, 26 & 28, BrC16HT 12.5 or 25 mg/kg, Taxol® 12.5 mg/kg (FIG. 6b)): significantly (p<0.05 vs. control) increased the survival time
relative acute toxicity of the liposomes (CDF1 female mice; CDF1 mice): less toxic than were the 2-bromo-C6 paclitaxel derivative-containing liposomes
number of mice that died within the first 14 days post-injection/total (CDF1 female mice; single dose 300 mg/kg): 1/5
number of mice that died within the first 14 days post-injection/total (CDF1 female mice; single dose 400 mg/kg): 1/5
number of mice that died within the first 14 days post-injection/total (CDF1 female mice; single dose 500 mg/kg): 0/5
Number of Mice surviving/Total (CDF1 mice [8]; i.p. days 1 through 5, 12.5 mg/kg): 10/10
Number of Mice surviving/Total (CDF1 mice [8]; i.p. days 1 through 5, 25 mg/kg): 19/19
Number of Mice surviving/Total (CDF1 mice [8]; i.p. days 1 through 5, 37.5 mg/kg): 10/10
Number of Mice surviving/Total (CDF1 mice [8]; i.p. days 1 through 5, 50 mg/kg): 14/20
Number of Mice surviving/Total (CDF1 mice [8]; i.p. days 1 through 5, 75 mg/kg): 0/5
Number of Mice surviving/Total (CDF1 mice [8]; i.p. days 1 through 5, 100 mg/kg): 0/2
Number of Mice surviving/Total (CDF1 mice [9]; i.v. days 1 through 5, 12.5 mg/kg): 10/10
Number of Mice surviving/Total (CDF1 mice [9]; i.v. days 1 through 5, 25 mg/kg): 9/10
Number of Mice surviving/Total (CDF1 mice [9]; i.v. days 1 through 5, 37.5 mg/kg): 0/10
Number of Mice surviving/Total (CDF1 mice [9]; i.v. days 1 through 5, 50 mg/kg): 0/10

Reference: patent US6482850B2, “Hydrolysis-promoting hydrophobic taxane derivatives” (priority 1995, dated 2002)
